Test results from patent US20100120311A1, “METHOD FOR PROVIDING TEXTILES WITH DESENSITIZED SILVER COMPONENTS” (priority 2006, published 2010).

Assay: Visual assessment of discoloration on exposure to light
Conditions: benzotriazole up to 5 g/g of silver ions, hydroxylamine hydrochloride up to 3 g/g of silver ions, without pinacryptol yellow

Structure (SMILES)	suppression of discoloration of formulation and textile by stabilizer
c1ccc2[nH]nnc2c1 [benzotriazole]	not capable, in the concentration used, of permanently suppressing either the discoloration of the formulation itself or the discoloration of the textile
Cl.NO [hydroxylamine hydrochloride]	not capable, in the concentration used, of permanently suppressing either the discoloration of the formulation itself or the discoloration of the textile
